Results from the Kinase Knowledgebase extract (Sharma et al. 2016).

Key:
[1] = target: PIK3CA (human) (UniProt P42336); experiment: Enzyme Assay
[2] = target: PIK3CG (human) (UniProt P48736); experiment: Enzyme Assay
[3] = target: PIK3CB (Human) (UniProt P42338); experiment: Enzyme Assay
[4] = target: PIK3CD (Human) (UniProt O00329); experiment: Enzyme Assay
[5] = target: PIK3CA (human) (UniProt P42336); experiment: Cell-Based Assay

Sequence of PIK3CA (human) (P42336 whole entry, looked up): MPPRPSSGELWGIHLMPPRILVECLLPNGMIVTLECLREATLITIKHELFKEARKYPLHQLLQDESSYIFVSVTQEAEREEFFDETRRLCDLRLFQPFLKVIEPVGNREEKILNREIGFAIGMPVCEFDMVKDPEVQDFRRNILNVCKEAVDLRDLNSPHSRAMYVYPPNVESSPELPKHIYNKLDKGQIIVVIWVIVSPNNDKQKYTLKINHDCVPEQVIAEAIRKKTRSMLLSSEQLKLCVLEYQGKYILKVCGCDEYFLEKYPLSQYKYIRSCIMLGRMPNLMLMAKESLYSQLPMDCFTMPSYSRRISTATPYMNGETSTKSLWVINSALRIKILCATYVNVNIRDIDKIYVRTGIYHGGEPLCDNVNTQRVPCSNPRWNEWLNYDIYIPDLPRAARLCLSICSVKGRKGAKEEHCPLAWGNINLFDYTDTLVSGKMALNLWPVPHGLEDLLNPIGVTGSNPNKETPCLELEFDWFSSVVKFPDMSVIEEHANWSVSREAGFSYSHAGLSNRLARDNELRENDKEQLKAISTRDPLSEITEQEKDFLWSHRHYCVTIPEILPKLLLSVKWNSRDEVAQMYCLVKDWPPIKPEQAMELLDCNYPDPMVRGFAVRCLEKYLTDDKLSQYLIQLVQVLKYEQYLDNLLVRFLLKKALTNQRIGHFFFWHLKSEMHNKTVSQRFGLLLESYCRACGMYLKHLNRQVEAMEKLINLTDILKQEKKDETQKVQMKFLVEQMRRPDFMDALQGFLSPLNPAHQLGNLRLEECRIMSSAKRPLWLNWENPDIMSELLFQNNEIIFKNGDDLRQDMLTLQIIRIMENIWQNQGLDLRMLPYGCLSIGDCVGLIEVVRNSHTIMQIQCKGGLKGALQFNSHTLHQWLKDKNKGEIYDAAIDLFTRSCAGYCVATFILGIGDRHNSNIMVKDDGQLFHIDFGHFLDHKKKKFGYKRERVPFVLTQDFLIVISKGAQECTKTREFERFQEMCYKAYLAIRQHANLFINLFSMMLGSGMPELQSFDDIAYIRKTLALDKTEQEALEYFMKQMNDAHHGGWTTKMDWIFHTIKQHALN
Sequence of PIK3CB (Human) (P42338 whole entry, looked up): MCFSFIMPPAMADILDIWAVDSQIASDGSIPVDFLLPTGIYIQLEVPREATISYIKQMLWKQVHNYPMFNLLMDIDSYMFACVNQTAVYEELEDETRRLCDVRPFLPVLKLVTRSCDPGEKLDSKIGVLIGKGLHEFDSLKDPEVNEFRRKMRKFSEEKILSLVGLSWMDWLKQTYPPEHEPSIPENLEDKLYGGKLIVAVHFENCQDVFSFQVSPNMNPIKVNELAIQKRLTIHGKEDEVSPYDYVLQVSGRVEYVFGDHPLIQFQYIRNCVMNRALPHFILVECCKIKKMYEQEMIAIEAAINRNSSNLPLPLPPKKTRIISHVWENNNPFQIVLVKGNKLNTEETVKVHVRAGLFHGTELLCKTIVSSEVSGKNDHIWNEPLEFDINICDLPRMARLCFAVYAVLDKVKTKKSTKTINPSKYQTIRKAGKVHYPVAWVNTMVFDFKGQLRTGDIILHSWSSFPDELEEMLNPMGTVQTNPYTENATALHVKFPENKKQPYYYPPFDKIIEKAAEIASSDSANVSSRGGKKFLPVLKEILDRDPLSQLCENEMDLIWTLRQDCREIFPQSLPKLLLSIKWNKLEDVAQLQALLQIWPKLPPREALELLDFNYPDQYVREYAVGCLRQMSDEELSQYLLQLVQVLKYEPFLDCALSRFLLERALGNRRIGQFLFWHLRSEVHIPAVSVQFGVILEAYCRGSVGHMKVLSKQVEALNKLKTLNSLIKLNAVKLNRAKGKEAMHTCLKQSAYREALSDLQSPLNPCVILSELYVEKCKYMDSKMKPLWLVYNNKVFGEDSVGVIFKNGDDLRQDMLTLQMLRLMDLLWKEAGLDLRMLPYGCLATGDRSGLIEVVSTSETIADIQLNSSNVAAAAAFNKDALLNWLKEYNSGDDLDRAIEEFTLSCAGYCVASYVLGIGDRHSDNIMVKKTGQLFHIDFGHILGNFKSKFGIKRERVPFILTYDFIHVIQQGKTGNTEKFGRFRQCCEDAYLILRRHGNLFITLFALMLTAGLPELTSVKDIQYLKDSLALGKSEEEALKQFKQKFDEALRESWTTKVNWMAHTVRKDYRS
Sequence of PIK3CD (Human) (O00329 whole entry, looked up): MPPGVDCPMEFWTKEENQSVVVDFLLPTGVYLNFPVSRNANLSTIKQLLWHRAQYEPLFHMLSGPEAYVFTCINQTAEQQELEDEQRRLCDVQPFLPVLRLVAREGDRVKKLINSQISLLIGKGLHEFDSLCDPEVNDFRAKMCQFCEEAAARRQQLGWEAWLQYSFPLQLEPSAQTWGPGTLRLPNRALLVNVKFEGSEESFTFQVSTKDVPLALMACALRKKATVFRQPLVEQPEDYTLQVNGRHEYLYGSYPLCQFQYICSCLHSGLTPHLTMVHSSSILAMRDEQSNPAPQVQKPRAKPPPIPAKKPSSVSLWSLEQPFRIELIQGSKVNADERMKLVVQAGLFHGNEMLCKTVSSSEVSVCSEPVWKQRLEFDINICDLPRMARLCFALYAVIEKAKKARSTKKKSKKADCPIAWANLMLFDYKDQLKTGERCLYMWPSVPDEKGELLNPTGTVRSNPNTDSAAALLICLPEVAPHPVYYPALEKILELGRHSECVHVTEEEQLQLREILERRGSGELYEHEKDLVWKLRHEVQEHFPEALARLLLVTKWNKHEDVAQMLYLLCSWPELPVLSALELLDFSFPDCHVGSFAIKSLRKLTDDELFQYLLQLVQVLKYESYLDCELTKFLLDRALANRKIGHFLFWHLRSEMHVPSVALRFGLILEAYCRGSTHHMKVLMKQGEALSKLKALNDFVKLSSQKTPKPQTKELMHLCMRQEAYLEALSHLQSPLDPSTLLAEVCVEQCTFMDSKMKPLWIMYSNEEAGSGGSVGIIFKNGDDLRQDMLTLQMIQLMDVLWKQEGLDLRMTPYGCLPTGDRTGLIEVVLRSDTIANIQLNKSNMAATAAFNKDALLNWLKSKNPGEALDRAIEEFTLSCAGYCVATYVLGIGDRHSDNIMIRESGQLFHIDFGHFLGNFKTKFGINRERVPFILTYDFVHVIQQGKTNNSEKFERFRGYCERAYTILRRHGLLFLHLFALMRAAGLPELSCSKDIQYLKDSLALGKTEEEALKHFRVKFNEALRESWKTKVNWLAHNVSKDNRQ
Sequence of PIK3CG (human) (P48736 whole entry, looked up): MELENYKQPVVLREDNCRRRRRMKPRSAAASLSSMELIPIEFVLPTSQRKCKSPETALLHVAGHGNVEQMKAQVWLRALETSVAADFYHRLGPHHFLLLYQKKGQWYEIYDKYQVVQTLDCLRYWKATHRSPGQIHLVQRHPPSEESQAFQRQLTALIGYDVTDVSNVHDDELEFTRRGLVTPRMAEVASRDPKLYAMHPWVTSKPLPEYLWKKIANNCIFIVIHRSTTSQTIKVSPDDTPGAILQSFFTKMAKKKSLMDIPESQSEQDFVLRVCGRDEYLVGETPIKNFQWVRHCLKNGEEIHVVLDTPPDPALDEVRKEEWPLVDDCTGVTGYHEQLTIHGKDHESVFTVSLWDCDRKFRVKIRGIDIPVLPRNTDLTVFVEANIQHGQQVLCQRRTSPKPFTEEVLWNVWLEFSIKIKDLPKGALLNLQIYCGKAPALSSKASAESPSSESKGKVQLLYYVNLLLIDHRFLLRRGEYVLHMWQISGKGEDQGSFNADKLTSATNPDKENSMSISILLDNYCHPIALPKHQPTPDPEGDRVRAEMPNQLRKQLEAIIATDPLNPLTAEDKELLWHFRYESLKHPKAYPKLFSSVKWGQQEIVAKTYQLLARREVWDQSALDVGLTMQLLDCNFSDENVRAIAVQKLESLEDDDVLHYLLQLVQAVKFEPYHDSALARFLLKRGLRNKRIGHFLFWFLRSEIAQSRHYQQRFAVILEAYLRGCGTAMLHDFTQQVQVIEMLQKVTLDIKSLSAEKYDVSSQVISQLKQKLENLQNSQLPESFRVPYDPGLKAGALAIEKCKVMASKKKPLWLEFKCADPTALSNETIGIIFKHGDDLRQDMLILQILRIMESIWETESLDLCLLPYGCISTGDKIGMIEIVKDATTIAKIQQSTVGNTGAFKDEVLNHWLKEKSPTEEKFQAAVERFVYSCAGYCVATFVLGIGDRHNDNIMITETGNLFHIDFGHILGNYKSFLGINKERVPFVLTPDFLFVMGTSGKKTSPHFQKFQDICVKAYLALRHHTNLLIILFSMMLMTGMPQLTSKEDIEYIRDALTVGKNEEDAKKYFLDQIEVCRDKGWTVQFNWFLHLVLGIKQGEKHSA

## NC1=NC2C=C(c3ccc4oc(N)nc4c3)C=CC2O1 (configuration not stated)
[1]
  IC50: 100 to 1000 nM
[2]
  IC50: < 100 nM

## Nc1nc2cccc(-c3ccc4nccc(-c5ccncc5)c4c3)c2s1
[1]
  IC50: < 100 nM

## CN(C)CC(=O)N1CCN(c2cnc3ccc(-c4ccc5oc(N)nc5c4)cc3n2)CC1
[1]
  IC50: < 100 nM
[3]
  IC50: 100 to 1000 nM
[4]
  IC50: 100 to 1000 nM
[2]
  IC50: 100 to 1000 nM
[5]; t47d
  IC50: 100 to 1000 nM

## CN1CCN(S(=O)(=O)c2cnc3ccc(-c4ccc5oc(N)nc5c4)cn23)CC1
[1]
  IC50: > 10000 nM
[3]
  IC50: > 10000 nM
[4]
  IC50: > 10000 nM
[2]
  IC50: > 10000 nM

## Nc1nc2cc(-c3ccc4ncc(C(=O)N[C@H]5CC[C@H](O)CC5)n4c3)ccc2o1
[2]
  IC50: < 100 nM

## Nc1nc2ccc(-c3ccc4nccc(-c5ccncc5)c4c3)cc2s1
[1]
  IC50: < 100 nM
[3]
  IC50: > 10000 nM
[4]
  IC50: 100 to 1000 nM
[2]
  IC50: 100 to 1000 nM

## NC(=O)[C@H]1CCCN1c1cnc2ccc(-c3ccc4oc(N)nc4c3)cc2n1
[1]
  IC50: < 100 nM
[3]
  IC50: < 100 nM
[4]
  IC50: > 10000 nM
[2]
  IC50: < 100 nM
[5]; t47d
  IC50: 100 to 1000 nM

## Nc1nc2cc(-c3ccc4ncc(NCCN5CCOCC5)nc4c3)ccc2o1
[1]
  IC50: < 100 nM
[3]
  IC50: 100 to 1000 nM
[4]
  IC50: 100 to 1000 nM
[2]
  IC50: 100 to 1000 nM

## Nc1nc2cc(-c3ccc4ncc(N[C@H]5CC[C@H](O)CC5)nc4c3)ccc2o1
[1]
  IC50: < 100 nM
[4]
  IC50: < 100 nM
[2]
  IC50: < 100 nM

## Nc1nc2cc(-c3ccc4ncc(-c5ccncc5)n4n3)ccc2o1
[1]
  IC50: < 100 nM
[3]
  IC50: 100 to 1000 nM
[2]
  IC50: < 100 nM
[5]; pc3
  IC50: 100 to 1000 nM
[5]; t47d
  IC50: 100 to 1000 nM

## Nc1nc2cc(-c3ccc4ncc(C(=O)N5C6CCC5COC6)n4c3)ccc2o1
[1]
  IC50: 100 to 1000 nM
[2]
  IC50: < 100 nM
[5]; pc3
  IC50: 100 to 1000 nM

## NC1=NC2C=C(c3ccc4nc(N)oc4c3)C=CC2O1 (configuration not stated)
[1]
  IC50: 100 to 1000 nM
[4]
  IC50: 100 to 1000 nM
[2]
  IC50: < 100 nM

## COc1ncc(-c2ccc3ncn(C4CCN(C)CC4)c(=O)c3c2)cc1NS(C)(=O)=O
[4]
  IC50: < 100 nM

## CNc1nsc2cc(-c3ccc4ncc(C(=O)N5CCOCC5)n4c3)ccc12
[1]
  IC50: > 10000 nM
[3]
  IC50: > 10000 nM
[4]
  IC50: > 10000 nM
[2]
  IC50: > 10000 nM

## CS(=O)(=O)N1CCC(n2cnc3ccc(-c4ccc5oc(N)nc5c4)cc3c2=O)CC1
[1]
  IC50: 100 to 1000 nM
[4]
  IC50: > 10000 nM
[2]
  IC50: > 10000 nM

## Nc1nc2cc(-c3ccc4ncc(C(=O)N5CCC(O)C5)n4c3)ccc2o1 (configuration not stated)
[2]
  IC50: 100 to 1000 nM
[5]; t47d
  IC50: 100 to 1000 nM

## CC1CN(C(=O)c2cnc3ccc(-c4ccc5oc(N)nc5c4)cn23)CCN1 (configuration not stated)
[1]
  IC50: 100 to 1000 nM
[3]
  IC50: 100 to 1000 nM
[4]
  IC50: > 10000 nM
[2]
  IC50: > 10000 nM

## Nc1nc2cc(-c3ccc4nccc(-c5ccncc5)c4c3)ccc2o1
[1]
  IC50: < 100 nM
[4]
  IC50: < 100 nM
[2]
  IC50: < 100 nM
[5]; pc3
  IC50: 100 to 1000 nM
[5]; t47d
  IC50: 100 to 1000 nM

## Nc1nc2ccc(-c3ccc4nccc(-c5ccncc5)c4c3)cc2o1
[1]
  IC50: < 100 nM
[3]
  IC50: < 100 nM
[4]
  IC50: < 100 nM
[2]
  IC50: < 100 nM
[5]; pc3
  IC50: < 100 nM

## Nc1nc2cc(-c3ccc4ncc(-c5cn[nH]c5)n4n3)ccc2o1
[1]
  IC50: < 100 nM
[3]
  IC50: < 100 nM
[4]
  IC50: 100 to 1000 nM
[2]
  IC50: < 100 nM

## COC(=O)N1CCC(N2N=CC3C(N4CCOCC4)=NC(c4ccc5oc(N)nc5c4)=NC32)CC1 (configuration not stated)
[1]
  IC50: 100 to 1000 nM
[4]
  IC50: > 10000 nM
[2]
  IC50: > 10000 nM

## Nc1nc2cc(-c3ccc4ncc(C(=O)N5CCC(N6CCC(F)(F)C6)C5)n4c3)ccc2o1 (configuration not stated)
[1]
  IC50: 100 to 1000 nM
[3]
  IC50: > 10000 nM

## Nc1nc2cc(-c3ccc4ncc(S(=O)(=O)N5CCOCC5)n4c3)ccc2o1
[1]
  IC50: > 10000 nM
[3]
  IC50: > 10000 nM
[4]
  IC50: > 10000 nM
[2]
  IC50: > 10000 nM

## CC(=O)Nc1cc2ccc(-c3cc(F)c4oc(N)nc4c3)cn2n1
[1]
  IC50: > 10000 nM
[3]
  IC50: > 10000 nM
[4]
  IC50: > 10000 nM

## Nc1nc2cc(-c3ccc4ncn(-c5ccncc5)c4c3)ccc2o1
[1]
  IC50: < 100 nM
[2]
  IC50: 100 to 1000 nM
[5]; pc3
  IC50: > 10000 nM

## C[C@H]1CN(c2cnc3ccc(-c4cccc5c(N)nsc45)cc3n2)CCN1
[2]
  IC50: < 100 nM

## CN1CCN(C(=O)c2cnn3ccc(-c4ccc5oc(N)nc5c4)cc23)CC1
[1]
  IC50: 100 to 1000 nM
[4]
  IC50: > 10000 nM

## CC(=O)Nc1nc2ccc(-c3ccc4oc(N)nc4c3)cc2s1
[1]
  IC50: < 100 nM
[3]
  IC50: 100 to 1000 nM
[4]
  IC50: < 100 nM
[2]
  IC50: < 100 nM
[5]; t47d
  IC50: 100 to 1000 nM

## CC1(C)CN(C2CN(C(=O)c3cnc4ccc(-c5ccc6oc(N)nc6c5)cn34)C2)CCN1
[1]
  IC50: < 100 nM
[4]
  IC50: < 100 nM
[2]
  IC50: 100 to 1000 nM
[5]; pc3
  IC50: 100 to 1000 nM

## Nc1nc2cc(-c3ccc4ncc(-c5ccncc5)n4c3)ccc2o1
[1]
  IC50: < 100 nM
[4]
  IC50: 100 to 1000 nM
[2]
  IC50: < 100 nM
[5]; t47d
  IC50: 100 to 1000 nM

## C[C@H]1CN(c2cnc3ccc(-c4ccc5oc(N)nc5c4)cc3c2)CCN1
[1]
  IC50: < 100 nM
[3]
  IC50: < 100 nM
[4]
  IC50: > 10000 nM

## CC(N)C(=O)N1CCN(c2cnc3ccc(-c4ccc5oc(N)nc5c4)cc3n2)CC1 (configuration not stated)
[5]; t47d
  IC50: 100 to 1000 nM

## CN1CCN(n2cnc3ccc(-c4ccc5oc(N)nc5c4)cc3c2=O)CC1
[1]
  IC50: 100 to 1000 nM
[3]
  IC50: > 10000 nM
[4]
  IC50: > 10000 nM
[2]
  IC50: > 10000 nM
